We go through three compounds from article PMC3259267 (Bioorganic & medicinal chemistry, 2011).

By Papp A→B is commonly meant how fast a substance crosses the layer from the apical side. A higher Papp A→B goes with fast passage.

Data set [1] concerns panel of 68 radioligand receptor assays. Nature of the data set: LeadProfilingScreen radioligand binding panel. To be noted: 10 uM; none positive, mostly <10%.
A short description of data set [2]: Plasma concentration and blood brain barrier penetration. The conditions noted are these: G93A SOD1 transgenic mice, single ip 50 mg/kg.
Data set [3] is described as follows: Caco-2 monolayer permeability. To be noted: human.
The test system of a further data set is ALS. To be noted: ALS patients, on average; ref [1]; cited from earlier work.

Take `O=C1CC(=O)CC(c2cc(C(F)(F)F)cc(C(F)(F)F)c2)C1` [Compound 26]: the “inhibition in all 68 radioligand receptor assays” value in data set [1] is < 20%. For the same compound, the “period of stable plasma concentrations” value in data set [2] fell in the range of 3 to 12 h.
`CC(Oc1cc(C(F)(F)F)cc(C(F)(F)F)c1)C1CC(=O)CC(=O)C1` (stereo not shown) [Compound 73] gave a Papp A→B at 2 h, 50 μM in data set [3] of 24.8 ×10⁻⁶ cm/s.
Consider `Nc1nc2ccc(OC(F)(F)F)cc2s1` [riluzole], for which the extension of life in the data set with ALS is reported as 2–3 months.
